In US7504415B2, “Therapeutic agent for glomerular disease” (Kowa Co., Ltd., priority 2001, dated 2009):

Key:
[1] = test system: Human mensagial cells; assay: Mensagial matrix (PIP) production inhibition test, TGF-β1-stimulated, ELISA; assay type: cell-based; conditions: TGF-β1 10 ng/mL stimulation, 72 hours culture, PIP by ELISA, read-out: PIP production inhibitory activity (IC50)
Procedure: (1) Culture and Storage of Human Mensagial Cells
Human mensagial cells (normal human mensagial cells, CryoNHMC, product of Sanko Junyaku Co., Ltd.) were cultured in MsGM medium (15 mL/flask) by use of two 75-cm^2 flasks (430720, CORNING). The medium was replaced with fresh medium every 2 to 3 days. Subsequently, the culture was scaled up to a 225-cm^2 flask (3000, COSTER) level, and three vials of passage 5 and 27 vials of passage 6 were prepared at a cell count of 5×10^6 cells/Cell Banker 1 mL/vial (430659, CORNING). The thus-cultured cell samples were stored in a container cooled by liquid nitrogen.
(2) Determination of Mansagial Matrix Production Inhibitory Activity
Cryopreserved human mensagial cells of passage 6 were revived and sown in a medium placed in a 75-cm^2 flask. The medium was replaced the next day, and incubation was continued for three more days. The thus-cultured cells were treated with 0.25% trypsin-0.02% EDTA. […] After completion of culturing, the PIP level of each culture liquid was determined through ELISA by use of a PIP determination kit (product of TAKARA). The percent inhibition (%) was calculated in accordance with the following equation, and the PIP production inhibitory activity (IC50 value) was derived from the percent inhibition. […]

[2] = test system: progressive anti-Thy-1 nephritic rat; assay: Pharmacological test using progressive anti-Thy-1 nephritic rats; assay type: in vivo; conditions: 20 mg/kg perorally once/day, 10 weeks
Procedure: (1) Wistar female rats (5 weeks old, purchased from Japan SLC Co., Ltd.) were quarantined and acclimatized for four days, and used for the test. First, the right kidney of each rat was removed through flank incision under anesthesia with pentobarbital. Two weeks after removal of the right kidney, an anti-Thy-1 antibody (anti-mesangial-cell antibody/monoclonal antibody 1-22-3; purchased from Panafarm Laboratories Co., Ltd.) was intravenously administered (500 μg/rat) into the tail vein, whereby progressive anti-Thy-1 nephritis was induced. Immediately thereafter, compound A which had been suspended in an aqueous 0.5% sodium carboxymethyl cellulose solution was perorally administered via a peroral probe to each rat in a forced and continuous manner (20 mg/kg body weight, once/day, 10 weeks). After completion of 10 weeks' administration of compound A, urine was taken from each rat for 18 hours in a metabolic cage (Sugiyama Gen Co., Ltd.), and the total amount of protein excreted into the urine was determined.
(2) After completion of the urine analysis, the left kidney was extirpated from each rat, fixed in formalin, and embedded with paraffin. A thin slice obtained from the thus-treated kidney was stained with hematoxylin and eosin (HE), and observed under a stereoscopic microscope. […] The ratio was evaluated on the basis of the following classification. […]

[3] = test system: renal failure model (5/6 nephrectomized) rats; assay: Renal failure model (5/6 nephrectomized) rats; assay type: in vivo, rat; conditions: 15 mg/kg perorally once a day
Text: Male Wistar rats (10 weeks old, 300 to 350 g, purchased from Japan SLC Co., Ltd.) were anesthetized with pentobarbital, and the right kidney of each rat was extirpated. Subsequently, the left kidney was exposed. Under a stereoscopic microscope, two of the left renal artery branches (generally, one renal artery is separated into three branches) were ligated and one central branch was left intact, to thereby provide a 5/6 nephrectomized rat. When a renal artery branch is ligated, a portion controlled by the branch falls into ischemia, and such ischemic renal portion can be visually detected. The thus-produced renal failure models were evaluated in terms of increase in blood urea nitrogen level (BUN) one day after the ligation.
The rats were divided into three groups such that the BUN level (one day after ligation) of the groups were equalized, and compound A was administered to each rat of the groups. The groups consisted of a normal rat group (N=5); a 5/6 nephphrectomized and drug-untreated group (control: N=8); and a 5/6 nephrectomized and compound-A-administered group (15 mg/kg: N=8). […] The (total protein)/creatinine ratio (UP/Ucr) in a urine sample and the BUN level were determined on days 7, 14, 21, 28, and 35 after ligation.

[4] = test system: Slc: Wistar rats; assay: Acute toxicity test; assay type: in vivo, rat
Procedure: Slc: Wistar rats (5 male rats and 5 female rats, 6 weeks old, purchased from Japan SLC Co., Ltd.) were subjected to fasting overnight. After fasting, compound A which had been suspended in an aqueous 0.5% sodium carboxymethyl cellulose solution was perorally administered in a forced manner to each male rat (500 mg/kg) and each female rat (250 mg/kg).

With “monocalcium (+)-bis[(3R, 5S, 6E)-7-[2-cyclopropyl-4-(4-fluorophenyl)-3-quinolyl]-3,5-dihydroxy-6-heptenoate] [compound A]” the IC50 [1] was 22.4 µM, the “total amount of protein excreted into urine (18 hours)” value ([2]; FIG. 1) was “significantly lowered” and the “lesions occurring in the malpighian tubes and stroma (tubulointerstitial damage score, HE staining)” value ([2]; FIG. 2) was “significantly inhibited”. For the same substance, the “blood urea nitrogen (BUN) level” value ([3]; after week 4, FIG. 4) was “significant decrease”, the “(total protein)/creatinine ratio (UP/Ucr) in urine” value ([3]; weeks 7 and 8 after administration, vs drug-untreated group, FIG. 3) was “significantly decreases” and the “death during observation period of 14 days” value ([4]; female rats, 250 mg/kg single peroral dose after overnight fasting) was “no case of death”. For the same substance, the “death during observation period of 14 days” value ([4]; male rats, 500 mg/kg single peroral dose after overnight fasting) was “no case of death”.
